pEC50: −log10 of the molar value.

The text below walks through data of patent US6509358B2, “Piperidino-phenyl amino squarate and thiadiazole dioxide beta-3 adrenergic receptor agonists” (Wyeth, priority 2000, dated 2003).

For one data set, the target named is T1, human β3-AR (Homo sapiens, UniProt P13945).
T1 construct: Full-length β3-AR clones (402 amino acids) containing the last 6 amino acids of hβ3-AR; expressed in transfected cells; host or cells: CHO cells
The experiment in a line: cAMP accumulation (SPA) in CHO cells transfected with human β3-AR. Particulars: for pEC50: CHO cells transfected with human β3-AR, cAMP, 30 min at 37° C., 10^-9 M to 10^-5 M; for IA(β3): maximal response of compound relative to maximal response of isoproterenol at 10^-5 M. In kind it is cell-based. The procedure:
Binding to the receptors was measured in Chinese Hamster ovary (CHO) cells that were transfected with β1-, β2-, and β3-AR's. The following briefly summarizes the procedures used and results obtained. Cloning of Human β3-AR Genomic DNA: cDNA was constructed by ligating four polymerase chain reaction (PCR) products using the following primers: an ATG-Narl fragment, sense primer [NT] and anti-sense primer [NT]; a […] fragment, [NT] as sense and [NT] as anti-sense primer; an […] fragment, sense primer [NT] and anti-sense primer [NT] and a Styl-TAG fragment, with sense primer [NT] and anti-sense primer [NT]. The corresponding primer sequences are described in Mantzoros, C. S., et.al., Diabetes, 1996, 45, 909-914. The four fragments are ligated into a pUC 18 plasmid (Gibco-BRL) and sequenced. Full-length β3-AR clones (402 amino acids) containing the last 6 amino acids of hβ3-AR are prepared with the β3-β[…]3 from ATTC. Binding Procedure: Clones expressing receptor levels of 70 to 110 fmoles/mg protein were used in the test procedures. CHO cells were grown in 24-well tissue culture plates in Dulbecco's Modified Eagle Media with 10% fetal bovine serum, MEM non-essential amino acids, Penicillin-Streptomycin and Geneticin. On the day of test procedure, growth medium was replaced with preincubation media (Dulbecco's Modified Eagle Media) and incubated for 30 minutes at 37° C. […] Isoproterenol (10^-5 M) was used as an internal standard for comparison of activity. Cells were incubated at 37° C. on a rocker for 30 min with the β3-AR transfected cells and 15 min with β1-AR and β2-AR transfected cells. Incubation was stopped by the addition of 0.2N HCl and the acid was neutralized with 2.5N NaOH. The plates, containing the cells and neutralized media, were stored at -20 ° C. until ready to test for cAMP using the SPA test kit (Amersham). Data Analysis and Results: Data collected from the SPA test procedure were analyzed as percent of the maximal isoproterenol response at 10^-5 M. Activity curves were plotted using the SAS statistical and graphics software. […] IA=% activity compound % activity isoproterenol
In general terms: cAMP levels reflect the balance of adenylyl cyclase and phosphodiesterase activity.

T1 sequence (P13945 whole entry): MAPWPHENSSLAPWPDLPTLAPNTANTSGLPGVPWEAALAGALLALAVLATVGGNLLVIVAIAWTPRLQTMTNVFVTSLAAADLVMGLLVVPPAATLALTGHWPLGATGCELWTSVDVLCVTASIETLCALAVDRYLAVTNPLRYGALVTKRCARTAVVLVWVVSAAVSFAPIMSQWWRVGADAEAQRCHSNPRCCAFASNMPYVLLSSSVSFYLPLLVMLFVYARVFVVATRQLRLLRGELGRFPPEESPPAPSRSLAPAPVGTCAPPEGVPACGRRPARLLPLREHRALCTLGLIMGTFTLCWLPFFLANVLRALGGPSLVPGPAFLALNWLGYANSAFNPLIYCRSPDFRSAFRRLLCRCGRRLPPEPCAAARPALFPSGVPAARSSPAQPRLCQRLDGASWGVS

In general, pEC50 refers to the negative decadic logarithm of the EC50, by convention in mol/L. Read a high pEC50 as a low EC50. For the compound `COc1ccc(CCNC2=NS(=O)(=O)N=C2Nc2ccc(N3CCC(NC[C@H](O)COc4ccc(O)cc4)CC3)cc2)cc1` [Example 1], on human β3-AR, the negative logarithm of the EC50 (pEC50) is 6.20 and the “IA(β3)” value was determined as 0.69.

Usually melting point stands for the temperature, or range, at which the solid turns liquid. Consider `CCCCCCCCNC1=NS(=O)(=O)N=C1Nc1ccc(N2CCC(NC[C@H](O)COc3ccc(O)cc3)CC2)cc1` [Example 4, 4-((2S)-2-Hydroxy-3-{1-[4-(4-octylamino-1,1-dioxo-1H-1.lambda(6)-[1,2,5]thiadiazol-3ylamimo)-phenyl]-piperidin-4-ylamino}-propoxy)-phenol], for which the melting point lay in the range of 198 to 204 °C. Moreover, on human β3-AR, the negative logarithm of the EC50 (pEC50) is 8.40 and the “IA(β3)” value was 0.96.

As to `COC(=O)C(Cc1ccccc1)NC1=NS(=O)(=O)N=C1Nc1ccc(N2CCC(NCC(O)c3ccc(O)c(NS(C)(=O)=O)c3)CC2)cc1` (hydrate or solvate) [Example 6, Methyl 2-{[4-(4-{4-[((2R)-2-hydroxy-2-{4-hydroxy-3-[(methylsulfonyl)amino]phenyl}ethyl)amino]piperidin-1-yl}anilino)-1,1-dioxido-1,2,5-thiadiazol-3-yl]amino}-3-yl]amino}-3-phenylpropanoate], the melting point is 210 °C (dec.).

On to `COC(=O)C(Cc1ccccc1)NC1=NS(=O)(=O)N=C1Nc1ccc(N2CCC(NCC(O)c3ccc(O)c(NS(C)(=O)=O)c3)CC2)cc1` [Example 6, Methyl 2-{[4-(4-{4-[((2R)-2-hydroxy-2-{4-hydroxy-3-[(methylsulfonyl)amino]phenyl}ethyl)amino]piperidin-1-yl}anilino)-1,1-dioxido-1,2,5-thiadiazol-3-yl]amino}-3-yl]amino}-3-phenylpropanoate], for which, on human β3-AR, the negative logarithm of the EC50 (pEC50) is 7.38 and the “IA(β3)” value worked out at 0.9.

For `COC(=O)[C@@H](Cc1ccccc1)Nc1c(Nc2ccc(N3CCC(NC[C@H](O)c4ccc(O)c(NS(C)(=O)=O)c4)CC3)cc2)c(=O)c1=O` [Example 2, Methyl (2R)-2-{[2-(4-{4-[((2R)-2-hydroxy-2-{4-hydroxy-3-[(methylsulfonyl)amino]phenyl}ethyl)amino]piperidin-1-yl}anilino)-3,4-dioxocyclobut-1-en-1-yl]amino}-3-phenylpropanoate], at human β3-AR, the negative-log EC50 (pEC50) is 6.70 and the “IA(β3)” value is listed as 0.80.

Consider `COC(=O)CNC1=NS(=O)(=O)N=C1Nc1ccc(N2CCC(NC[C@H](O)c3ccc(O)c(NS(C)(=O)=O)c3)CC2)cc1` [Example 3, Methyl {[4-(4-{4-[((2R)-2-hydroxy-2-{4-hydroxy-3-[(methylsulfonyl)amino]phenyl}ethyl)amino]piperidin-1-yl}anilino)-1,1-dioxido1,2,5-thiadiazol-3-yl]amino}acetate], for which the melting point is 120 °C (dec.). At human β3-AR, the negative-log EC50 (pEC50) is 7.00 and the “IA(β3)” value was determined as 0.40.

Take `O=S1(=O)N=C(NCCc2ccc(F)cc2)C(Nc2ccc(N3CCC(NC[C@H](O)COc4ccc(O)cc4)CC3)cc2)=N1` [Example 5, 4-((2S)-3-[1-(4-{4-[2-(4-Fluoro-phenyl)-ethylamino]-1,1-dioxo-1H-1.lambda(6).-[1,2,5]thiadiazol-3-ylamino}-phenyl)-piperidin-4-ylamino]-2-hydroxy-propoxy}-phenol]: at human β3-AR, the pEC50 was 8.10 and the “IA(β3)” value worked out at 1.0.

`COC(=O)[C@@H](Cc1ccccc1)Nc1c(Nc2ccc(N3CCC(NC[C@H](O)c4ccc(O)c(NS(C)(=O)=O)c4)CC3)cc2)c(=O)c1=O` (hydrate or solvate) [Example 2, Methyl (2R)-2-{[2-(4-{4-[((2R)-2-hydroxy-2-{4-hydroxy-3-[(methylsulfonyl)amino]phenyl}ethyl)amino]piperidin-1-yl}anilino)-3,4-dioxocyclobut-1-en-1-yl]amino}-3-phenylpropanoate]: the melting point is 240 °C (dec.).
